Assays:
HCT116 FOPFlash = assay: Control reporter assay, HCT116 FOP control vector (non-functional TCF elements), luciferase expression; format: cell-based; conditions: Homo sapiens, HCT-116, 36 h, HCT116 FOP control reporter cells, 36 hours incubation, dilution series 50 μM to 15 nM
Outline: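 Stable HCT116 cells carrying FOP vector (randomized non-functional TCF sites) plus pcDNA3, run in parallel with TOP line; compounds 50 μM to 15 nM (3.16-fold steps) added in CAFTY buffer pH 7.4 with 2 mM Ca2+, 0.01% BSA. Incubated 36 h at 37 °C, 5% CO2; luciferase luminescence read.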

[1] = system: constitutive active colorectal cancer cell (CRC) Wnt pathway, HCT116 TOPFlash; assay: Cellular reporter assay, HCT116 Super TopFlash (constitutive active Wnt pathway), luciferase expression; format: cell-based; conditions: Homo sapiens, HCT-116, 36 h, HCT116 Super TopFlash reporter cells, 36 hours incubation, dilution series 50 μM to 15 nM
Outline: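 HCT116 cells stably carrying Super TopFlash (β-catenin ΔS45, constitutive Wnt) run in parallel with FOP control line; compounds 50 μM to 15 nM (3.16-fold) in CAFTY buffer pH 7.4 with 2 mM Ca2+, 0.01% BSA, 36 h at 37 °C. Luciferase luminescence read as Wnt activity.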

Compound: Cc1nccnc1-c1nnc(NC(=O)c2ccc(OC(F)(F)F)c(NC(=O)CN3CCOCC3)c2)s1 [Example 91, N-[5-(3-methylpyrazin-2-yl)-1,3,4-thiadiazol-2-yl]-3-[(morpholin-4-ylacetyl)amino]-4-(trifluoromethoxy)benzamide]
- IC50 (HCT116 FOPFlash): ≥ 50 µM
- IC50 [1]: 35.6 µM

Compound: Cc1csc(-c2nnc(NC(=O)c3ccc(OC(F)(F)F)c(NC(=O)CN4CCOCC4)c3)s2)n1 [Example 92, N-[5-(4-methyl-1,3-thiazol-2-yl)-1,3,4-thiadiazol-2-yl]-3-[(morpholin-4-ylacetyl)amino]-4-(trifluoromethoxy)benzamide]
- IC50 (HCT116 FOPFlash): ≥ 50 µM
- IC50 [1]: 21.2 µM

Compound: Cc1ccnc(-c2nnc(NC(=O)c3ccc(OC(F)(F)F)c(NC(=O)CN4CCOCC4)c3)s2)c1 [Example 93, N-[5-(4-methylpyridin-2-yl)-1,3,4-thiadiazol-2-yl]-3-[(morpholin-4-ylacetyl)amino]-4-(trifluoromethoxy)benzamide]
- IC50 (HCT116 FOPFlash): ≥ 50 µM
- IC50 [1]: ≥ 50 µM

Compound: Nc1ncc(-c2nnc(NC(=O)c3ccc(OC(F)(F)F)c(NC(=O)CN4CCOCC4)c3)s2)cn1 [Example 94, N-[5-(2-aminopyrimidin-5-yl)-1,3,4-thiadiazol-2-yl]-3-[(morpholin-4-ylacetyl)amino]-4-(trifluoromethoxy)benzamide]
- IC50 (HCT116 FOPFlash): ≥ 50 µM
- IC50 [1]: 23.2 µM

Compound: Cc1nc(-c2nnc(NC(=O)c3ccc(OC(F)(F)F)c(NC(=O)CN4CCOCC4)c3)s2)cs1 [Example 95, N-[5-(2-methyl-1,3-thiazol-4-yl)-1,3,4-thiadiazol-2-yl]-3-[(morpholin-4-ylacetyl)amino]-4-(trifluoromethoxy)benzamide]
- IC50 (HCT116 FOPFlash): ≥ 50 µM
- IC50 [1]: 25.3 µM

Compound: O=C(CN1CCOCC1)Nc1cc(C(=O)Nc2nnc(-c3ncccc3F)s2)ccc1OC(F)(F)F [Example 96, N-[5-(3-fluoropyridin-2-yl)-1,3,4-thiadiazol-2-yl]-3-[(morpholin-4-ylacetyl)amino]-4-(trifluoromethoxy}benzamide]
- IC50 (HCT116 FOPFlash): ≥ 50 µM
- IC50 [1]: ≥ 50 µM

Compound: CN1CCN(CC(=O)Nc2cc(C(=O)Nc3nnc(-c4cnccn4)s3)ccc2OC(F)(F)F)CC1 [Example 97, 3-{[(4-methylpiperazin-1-yl)acetyl]amino}-N-[5-(pyrazin-2-yl)-1,3,4-thiadiazol-2-yl]-4-(trifluoromethoxy)benzamide]
- IC50 (HCT116 FOPFlash): ≥ 50 µM
- IC50 [1]: 7.05 µM

Compound: Nc1cc(-c2nnc(NC(=O)c3ccc(OC(F)(F)F)c(NC(=O)CN4CCOCC4)c3)s2)ccn1 [Example 98, N-[5-(2-aminopyridin-4-yl)-1,3,4-thiadiazol-2-yl]-3-[(morpholin-4-ylacetyl)amino)-4-(trifluoromethoxy)benzamide]
- IC50 (HCT116 FOPFlash): ≥ 50 µM
- IC50 [1]: ≥ 50 µM

Compound: Cc1ncc(-c2nnc(NC(=O)c3ccc(OC(F)(F)F)c(NC(=O)CN4CCN(C)CC4)c3)s2)s1 [Example 99, 3-{[(4-methylpiperazin-1-yl)acetyl)amino}-N-[5-(2-methyl-1,3-thiazol-5-yl)-1,3,4-thiadiazol-2-yl]-4-(trifluoromethoxy)benzamide]
- IC50 (HCT116 FOPFlash): ≥ 50 µM
- IC50 [1]: 8.55 µM

Compound: Cc1ncc(-c2nnc(NC(=O)c3ccc(OC(F)(F)F)c(NC(=O)CN4CCOCC4)c3)s2)s1 [Example 100, N-[5-(2-methyl-1,3-thiazol-5-yl)-1,3,4-thiadiazol-2-yl]-3-[(morpholin-4-ylacetyl)amino]-4-(trifluoromethoxy)benzamide]
- IC50 (HCT116 FOPFlash): ≥ 50 µM
- IC50 [1]: 41 µM

Compound: O=C(CN1CCOCC1)Nc1cc(C(=O)Nc2nnc(-c3nccs3)s2)ccc1OC(F)(F)F [Example 101, 3-[(morpholin-4-ylacetyl)amino]-N-[5-(1,3-thiazol-2-yl)-1,3,4-thiadiazol-2-yl]-4-(trifluoromethoxy)benzamide]
- IC50 (HCT116 FOPFlash): ≥ 50 µM
- IC50 [1]: ≥ 50 µM

Compound: Cc1cncc(-c2nnc(NC(=O)c3ccc(OC(F)(F)F)c(NC(=O)CN4CCN(C)CC4)c3)s2)n1 [Example 102, 3-{[(4-methylpiperazin-1-yl)acetyl]amino}-N-[5-(6-methylpyrazin-2-yl)-1,3,4-thiadiazol-2-yl]-4-(trifluoromethoxy)benzamide]
- IC50 (HCT116 FOPFlash): ≥ 50 µM
- IC50 [1]: 0.18 µM

Compound: O=C(CN1CCOCC1)Nc1cc(C(=O)Nc2nnc(-c3cncs3)s2)ccc1OC(F)(F)F [Example 103, 3-[(morpholin-4-ylacetyl)amino)-N-[5-(1,3-thiazol-5-yl)-1,3,4-thiadiazol-2-yl]-4-(trifluoromethoxy)benzamide]
- IC50 (HCT116 FOPFlash): ≥ 50 µM
- IC50 [1]: 12.2 µM

Compound: Nc1ncc(-c2nnc(NC(=O)c3ccc(OC(F)(F)F)c(NC(=O)CN4CCOCC4)c3)s2)s1 [Example 104, N-[5-(2-amino-1,3-thiazol-5-yl)-1,3,4-thiadiazol-2-yl]-3-[(morpholin-4-ylacetyl)amino]-4-(trifluoromethoxy)benzamide]
- IC50 (HCT116 FOPFlash): ≥ 50 µM
- IC50 [1]: 17.9 µM

Compound: Cc1scnc1-c1nnc(NC(=O)c2ccc(OC(F)(F)F)c(NC(=O)CN3CCOCC3)c2)s1 [Example 105, N-[5-(5-methyl-1,3-thiazol-4-yl)-1,3,4-thiadiazol-2-yl)-3-[(morpholin-4-ylacetyl)amino]-4-(trifluoromethoxy)benzamide]
- IC50 (HCT116 FOPFlash): ≥ 50 µM
- IC50 [1]: ≥ 50 µM

Compound: COc1ccc(C(=O)Nc2nnc(-c3cnccc3C)s2)cc1NC(=O)CN1CCOCC1 [Example 106, 4-methoxy-N-[5-(4-methylpyridin-3-yl)-1,3,4-thiadiazol-2-yl]-3-[(morpholin-4-ylacetyl)amino]benzamide]
- IC50 (HCT116 FOPFlash): ≥ 50 µM
- IC50 [1]: ≥ 50 µM

Compound: O=C(CN1CCOCC1)Nc1cc(C(=O)Nc2nnc(-c3cnccc3F)s2)ccc1OC(F)(F)F [Example 107, N-[5-(4-fluoropyridin-3-yl)-1,3,4-thiadiazol-2-yl]-3-[(morpholin-4-ylacetyl)amino]-4-(trifluoromethoxy)benzamide]
- IC50 (HCT116 FOPFlash): ≥ 50 µM
- IC50 [1]: ≥ 50 µM

Compound: Cc1ncsc1-c1nnc(NC(=O)c2ccc(OC(F)(F)F)c(NC(=O)CN3CCOCC3)c2)s1 [Example 108, N-[5-(4-methyl-1,3-thiazol-5-yl)-1,3,4-thiadiazol-2-yl)-3-[(morpholin-4-ylacetyl)amino]-4-(trifluoromethoxy)benzamide]
- IC50 (HCT116 FOPFlash): ≥ 50 µM
- IC50 [1]: ≥ 50 µM

Compound: CN1CCN(CC(=O)Nc2cc(C(=O)Nc3nnc(-c4cnccc4F)s3)ccc2OC(F)(F)F)CC1 [Example 109, N-[5-(4-fluoropyridin-3-yl)-1,3,4-thiadiazol-2-yl]-3-{[(4-methylpiperazin-1-yl)acetyl]amino}-4-(trifluoromethoxy}benzamide]
- IC50 (HCT116 FOPFlash): ≥ 50 µM
- IC50 [1]: 32 µM

Compound: O=C(CN1CCOCC1)Nc1cc(C(=O)Nc2nnc(-c3cnccc3C(F)(F)F)s2)ccc1OC(F)(F)F [Example 110, 3-[(morpholin-4-ylacetyl)amino)-4-(trifluoromethoxy)-N-{5-[4 (trifluoromethyl)pyridin-3-yl)-1,3,4-thiadiazol-2-yl}benzamide]
- IC50 (HCT116 FOPFlash): ≥ 50 µM
- IC50 [1]: 33 µM

Compound: Cc1ncsc1-c1nnc(NC(=O)c2ccc(OC(F)(F)F)c(NC(=O)CN3CCN(C)CC3)c2)s1 [Example 111, 3-{[(4-methylpiperazin-1-yl)acetyl]amino}-N-[5-(4-methyl-1,3-thiazol-5-yl)-1,3,4-thiadiazol-2-yl]-4-(trifluoromethoxy)benzamide]
- IC50 (HCT116 FOPFlash): ≥ 50 µM
- IC50 [1]: ≥ 50 µM

Compound: CN1CCN(CC(=O)Nc2cc(C(=O)Nc3nnc(-c4cncnc4)s3)ccc2OC2CC2)CC1 [Example 112, 4-(cyclopropyloxy)-3-{[(4-methylpiperazin-1-yl)acetyl]amino}-N-[5-(pyrimidin-5-yl)-1,3,4-thiadiazol-2-yl]benzamide]
- IC50 (HCT116 FOPFlash): ≥ 50 µM
- IC50 [1]: 0.33 µM

Compound: O=C(CN1CCOCC1)Nc1cc(C(=O)Nc2nnc(-c3cccnc3)s2)ccc1OC1COC1 [Example 113, 3-[(morpholin-4-ylacetyl)amino)-4-(oxetan-3 yloxy)-N-[5-(pyridin-3-yl)-1,3,4-thiadiazol-2-yl]benzamide]
- IC50 (HCT116 FOPFlash): ≥ 50 µM
- IC50 [1]: 27 µM

Compound: COCCCOc1ccc(C(=O)Nc2nnc(-c3cnccc3C)s2)cc1NC(=O)CN1CCN(C)CC1 [Example 114, 4-(3-methoxypropoxy)-3-{[(4-methylpiperazin-1-yl)acetyl)amino}-N-[5-(4-methylpyridin-3-yl)-1,3,4-thiadiazol-2-yl]benzamide]
- IC50 (HCT116 FOPFlash): ≥ 50 µM
- IC50 [1]: 26.1 µM

Compound: Cc1ccncc1-c1nnc(NC(=O)c2ccc(OCC3COC3)c(NC(=O)CN3CCN(C)CC3)c2)s1 [Example 115, 3-{[(4-methylpiperazin-1-yl)acetyl]amino}-N-[5-(4-methylpyridin-3-yl)-1,3,4-thiadiazol-2-yl]-4-(oxetan-3-ylmethoxy)benzamide]
- IC50 (HCT116 FOPFlash): ≥ 50 µM
- IC50 [1]: ≥ 50 µM

Compound: O=C(CN1CCOCC1)Nc1cc(C(=O)Nc2nnc(-c3ccncc3)s2)ccc1OC1CC1 [Example 116, 4-(cyclopropyloxy)-3-[(morpholin-4-ylacetyl)amino]-N-[5-(pyridin-4-yl)-1,3,4-thiadiazol-2-yl]benzamide]
- IC50 (HCT116 FOPFlash): ≥ 50 µM
- IC50 [1]: ≥ 50 µM

Compound: O=C(CN1CCOCC1)Nc1cc(C(=O)Nc2nnc(-c3cnccn3)s2)ccc1OC1CC1 [Example 117, 4-(cyclopropyloxy)-3-[(morpholin-4-ylacetyl)amino]-N-[5-(pyrazin-2-yl)-1,3,4-thiadiazol-2-yl]benzamide]
- IC50 (HCT116 FOPFlash): ≥ 50 µM
- IC50 [1]: ≥ 50 µM

Compound: O=C(CN1CCOCC1)Nc1cc(C(=O)Nc2ccc(-c3cccnc3)cn2)ccc1OC1CC1 [Example 118, N-(3,3′-bipyridin-6-yl)-4-(cyclopropyloxy)-3-[(morpholin-4-ylacetyl)amino]benzamide]
- IC50 (HCT116 FOPFlash): ≥ 50 µM
- IC50 [1]: ≥ 50 µM

Source: US20170107212A1, “NOVEL COMPOUNDS” (Bayer Pharma Aktiengesellschaft, priority 2014, published 2017)
